ChEMBL document CHEMBL2407047, “Molecular design, synthesis and biological evaluation of 1,4-dihydro-4-oxoquinoline ribonucleosides as TcGAPDH inhibitors with trypanocidal activity” (Bioorg Med Chem Lett, 2013)
Activity calls are given as the source filed them. The calls are words filed in the database; no cut-off is given here.

Legend:
Saccharomyces cerevisiae [1] = test: Effect on Saccharomyces cerevisiae TDH1 up to 500 uM
Saccharomyces cerevisiae [2] = test: Effect on Saccharomyces cerevisiae TDH2 up to 500 uM
Saccharomyces cerevisiae [3] = test: Effect on Saccharomyces cerevisiae TDH3 up to 500 uM

Row | Activity (Saccharomyces cerevisiae [1]) | Activity (Saccharomyces cerevisiae [2]) | Activity (Saccharomyces cerevisiae [3]) | Compound
1 | inactive | inactive | inactive | COc1ccc2c(c1)c(=O)c(C(=O)O)cn2[C@@H]1O[C@H](CO)[C@@H](O)[C@H]1O
2 | inactive | inactive | inactive | Cc1ccc2c(c1)c(=O)c(C(=O)O)cn2[C@@H]1O[C@H](CO)[C@@H](O)[C@H]1O
3 | inactive | inactive | inactive | Cc1ccc2c(=O)c(C(=O)O)cn([C@@H]3O[C@H](CO)[C@@H](O)[C@H]3O)c2c1
4 | inactive | inactive | inactive | O=C(O)c1cn([C@@H]2O[C@H](CO)[C@@H](O)[C@H]2O)c2ccc(Br)cc2c1=O
5 | inactive | inactive | inactive | O=C(O)c1cn([C@@H]2O[C@H](CO)[C@@H](O)[C@H]2O)c2ccc(Cl)cc2c1=O
6 | inactive | inactive | inactive | COc1ccc2c(=O)c(C(=O)O)cn([C@@H]3O[C@H](CO)[C@@H](O)[C@H]3O)c2c1
7 | inactive | inactive | inactive | O=C(O)c1cn([C@@H]2O[C@H](CO)[C@@H](O)[C@H]2O)c2cc(Br)ccc2c1=O
